Source: patent US20240092784A1, “CONDENSED HETEROCYCLIC COMPOUND” (NISSAN CHEMICAL CORPORATION, priority 2020, published 2024)
Where a name gives a salt, the structure may show the parent alone.

Biological target: human SPR (Homo sapiens (Human), UniProt P35270)
Test: Evaluation Example 2: Measurement of human SPR inhibitory activity (seven concentrations, sepiapterin absorbance at 420 nm)
Type: biochemical
Conditions: Evaluation Example 2, seven concentrations 0.14 nM to 100 nM, 240 minutes at room temperature, read-out: IC50
Method in brief: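 Reactions ran 240 min at room temperature in 100 mM Tris-HCl pH 7.5 with 0.01% BSA. They contained tag-cleaved, E. coli-expressed full-length human SPR (diluted to 150 ng/mL), seven compound concentrations from 0.14 to 100 nM, and sepiapterin/NADPH added as a 120 μM/160 μM solution. Inhibition was calculated from sepiapterin absorbance at 420 nm.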

Chain of human SPR (P35270 whole entry): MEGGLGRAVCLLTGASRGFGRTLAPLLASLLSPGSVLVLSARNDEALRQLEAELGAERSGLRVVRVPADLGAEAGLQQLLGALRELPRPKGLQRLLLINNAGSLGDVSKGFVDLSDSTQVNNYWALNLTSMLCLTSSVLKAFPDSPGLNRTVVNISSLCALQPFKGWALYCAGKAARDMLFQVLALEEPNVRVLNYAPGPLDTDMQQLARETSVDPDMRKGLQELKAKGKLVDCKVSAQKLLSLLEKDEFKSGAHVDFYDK

## CC(C)(C)Cn1c(=O)c(C(=O)NC2CC2)c(O)n2nc(-c3cc(F)cnc3N)cc12 [Synthesis Example 285, 2-(2-Amino-5-fluoropyridin-3-yl)-N-cyclopropyl-7-hydroxy-4-neopentyl-5-oxo-4,5-dihydropyrazolo[1,5-a]pyrimidine-6-carboxamide]
  IC50: 3.28 nM

## CC(C)(C)Cn1c(=O)c(C(=O)NC2CC2)c(O)n2nc(-c3cn[nH]c3)cc12 [Synthesis Example 286, N-Cyclopropyl-7-hydroxy-4-neopentyl-5-oxo-2-(1H-pyrazol-4-yl)-4,5-dihydropyrazolo[1,5-a]pyrimidine-6-carboxamide]
  IC50: 1.54 nM

## Cc1cn[nH]c1-c1cc2n(CC(C)(C)C)c(=O)c(C(=O)NC3CC3)c(O)n2n1 [Synthesis Example 287, N-Cyclopropyl-7-hydroxy-2-(4-methyl-1H-pyrazol-5-yl)-4-neopentyl-5-oxo-4,5-dihydropyrazolo[1,5-a]pyrimidine-6-carboxamide]
  IC50: 2.53 nM

## CC(C)(C)Cn1c(=O)c(C(=O)NC2CC2)c(O)n2nc(-c3cncnc3)cc12 [Synthesis Example 288, N-Cyclopropyl-7-hydroxy-4-neopentyl-5-oxo-2-(pyrimidin-5-yl)-4,5-dihydropyrazolo[1,5-a]pyrimidine-6-carboxamide]
  IC50: 1.37 nM

## CC(C)(C)Cn1c(=O)c(C(=O)NC2CC2)c(O)n2nc(-c3cnc(N)nc3)cc12 [Synthesis Example 289, 2-(2-Aminopyrimidin-5-yl)-N-cyclopropyl-7-hydroxy-4-neopentyl-5-oxo-4,5-dihydropyrazolo[1,5-a]pyrimidine-6-carboxamide]
  IC50: 2.05 nM

## Nc1ncccc1-c1cc2n(CC3CCOCC3)c(=O)c(C(=O)NC3CC3)c(O)n2n1 [Synthesis Example 290, 2-(2-Aminopyridin-3-yl)-N-cyclopropyl-7-hydroxy-5-oxo-4-((tetrahydro-2H-pyran-4-yl)methyl)-4,5-dihydropyrazolo[1,5-a]pyrimidine-6-carboxamide]
  IC50: 0.93 nM

## CC(C)(C)Cn1c(=O)c(C(=O)NC2CC2)c(O)n2nc(-c3cc(C#N)cnc3N)cc12 [Synthesis Example 291, 2-(2-Amino-5-cyanopyridin-3-yl)-N-cyclopropyl-7-hydroxy-4-neopentyl-5-oxo-4,5-dihydropyrazolo[1,5-a]pyrimidine-6-carboxamide]
  IC50: 6.42 nM

## CC(C)(C)Cn1c(=O)c(C(=O)NC2CC2)c(O)n2nc(-c3n[nH]cc3C#N)cc12 [Synthesis Example 292, 2-(4-Cyano-1H-pyrazol-3-yl)-N-cyclopropyl-7-hydroxy-4-neopentyl-5-oxo-4,5-dihydropyrazolo[1,5-a]pyrimidine-6-carboxamide]
  IC50: 1.32 nM

## CC(C)(C)Cn1c(=O)c(C(=O)NC2CC2)c(O)n2nc(-c3cccnc3C#N)cc12 [Synthesis Example 293, 2-(2-Cyanopyridin-3-yl)-N-cyclopropyl-7-hydroxy-4-neopentyl-5-oxo-4,5-dihydropyrazolo[1,5-a]pyrimidine-6-carboxamide]
  IC50: 2.24 nM

## CC(C)(C)Cn1c(=O)c(C(=O)NC2CC2)c(O)n2nc(-c3cnccc3C#N)cc12 [Synthesis Example 294, 2-(4-Cyanopyridin-3-yl)-N-cyclopropyl-7-hydroxy-4-neopentyl-5-oxo-4,5-dihydropyrazolo[1,5-a]pyrimidine-6-carboxamide]
  IC50: 2.26 nM

## CC(C)(C)Cn1c(=O)c(C(=O)NC2CC2)c(O)n2nc(-c3cnccc3F)cc12 [Synthesis Example 295, N-Cyclopropyl-2-(4-fluoropyridin-3-yl)-7-hydroxy-4-neopentyl-5-oxo-4,5-dihydropyrazolo[1,5-a]pyrimidine-6-carboxamide]
  IC50: 2.48 nM

## CC(C)(C)Cn1c(=O)c(C(=O)NC2CC2)c(O)n2nc(-c3cc(C#N)n[nH]3)cc12 [Synthesis Example 296, 2-(3-Cyano-1H-pyrazol-5-yl)-N-cyclopropyl-7-hydroxy-4-neopentyl-5-oxo-4,5-dihydropyrazolo[1,5-a]pyrimidine-6-carboxamide]
  IC50: 2.93 nM

## CC(C)(C)Cn1c(=O)c(C(=O)NC2CC2)c(O)n2nc(-c3cccnc3C(F)F)cc12 [Synthesis Example 297, N-Cyclopropyl-2-(2-(difluoromethyl)pyridin-3-yl)-7-hydroxy-4-neopentyl-5-oxo-4,5-dihydropyrazolo[1,5-a]pyrimidine-6-carboxamide]
  IC50: 3.32 nM

## CC(C)(C)Cn1c(=O)c(C(=O)NC2CC2)c(O)n2nc(-c3n[nH]cc3C(F)(F)F)cc12 [Synthesis Example 298, N-Cyclopropyl-7-hydroxy-4-neopentyl-5-oxo-2-(4-(trifluoromethyl)-1H-pyrazol-3-yl)-4,5-dihydropyrazolo[1,5-a]pyrimidine-6-carboxamide]
  IC50: 3.11 nM

## CC(C)(C)Cn1c(=O)c(C(=O)NC2CC2)c(O)n2nc(-c3ccccn3)cc12 [Synthesis Example 299, N-Cyclopropyl-7-hydroxy-4-neopentyl-5-oxo-2-(pyridin-2-yl)-4,5-dihydropyrazolo[1,5-a]pyrimidine-6-carboxamide]
  IC50: 6.43 nM

## COc1cnc(-c2cc3n(CC(C)(C)C)c(=O)c(C(=O)NC4CC4)c(O)n3n2)cn1 [Synthesis Example 300, N-Cyclopropyl-7-hydroxy-2-(5-methoxypyrazin-2-yl)-4-neopentyl-5-oxo-4,5-dihydropyrazolo[1,5-a]pyrimidine-6-carboxamide]
  IC50: 9.44 nM

## CC(C)(C)Cn1c(=O)c(C(=O)NC2CC2)c(O)n2nc(-c3cn[nH]c3C#N)cc12 [Synthesis Example 301]
  IC50: 1.22 nM

## CC(C)(C)Cn1c(=O)c(C(=O)NC2CC2)c(O)n2nc(-c3cnccn3)cc12 [Synthesis Example 302, N-Cyclopropyl-7-hydroxy-4-neopentyl-5-oxo-2-(pyrazin-2-yl)-4,5-dihydropyrazolo[1,5-a]pyrimidine-6-carboxamide]
  IC50: 2.69 nM

## Cc1cnc(-c2cc3n(CC(C)(C)C)c(=O)c(C(=O)NC4CC4)c(O)n3n2)cn1 [Synthesis Example 303, N-Cyclopropyl-7-hydroxy-2-(5-methylpyrazin-2-yl)-4-neopentyl-5-oxo-4,5-dihydropyrazolo[1,5-a]pyrimidine-6-carboxamide]
  IC50: 2.58 nM

## CC(C)(C)Cn1c(=O)c(C(=O)NC2CC2)c(O)n2nc(-c3cnc(F)cn3)cc12 [Synthesis Example 304, N-Cyclopropyl-2-(5-fluoropyrazin-2-yl)-7-hydroxy-4-neopentyl-5-oxo-4,5-dihydropyrazolo[1,5-a]pyrimidine-6-carboxamide]
  IC50: 3 nM

## CC(C)(C)Cn1c(=O)c(C(=O)NC2CC2)c(O)n2nc(-c3[nH]ncc3Cl)cc12 [Synthesis Example 305, 2-(4-Chloro-1H-pyrazol-5-yl)-N-cyclopropyl-7-hydroxy-4-neopentyl-5-oxo-4,5-dihydropyrazolo[1,5-a]pyrimidine-6-carboxamide]
  IC50: 2.24 nM

## CC(C)(C)Cn1c(=O)c(C(=O)NC2CC2)c(O)n2nc(-c3n[nH]c4ncccc34)cc12 [Synthesis Example 306]
  IC50: 9.43 nM

## CC(C)(C)Cn1c(=O)c(C(=O)NC2CC2)c(O)n2nc(-c3n[nH]c4ccncc34)cc12 [Synthesis Example 307, N-Cyclopropyl-7-hydroxy-4-neopentyl-5-oxo-2-(1H-pyrazolo[4,3-c]pyridin-3-yl 4,5-dihydropyrazolo[1,5-a]pyrimidine-6-carboxamide hydrochloride]
  IC50: 3.03 nM
